Measurements taken from paper PMC7904806, “A phase I dose-finding, pharmacokinetics and genotyping study of olaparib and lurbinectedin in patients with advanced solid tumors” (Scientific Reports, 2021).
Where “and” joins values, the source holds several entries; their conditions need not be identical. Equal values may be shown once. Entries after “also recorded” stand apart in the source; their conditions may differ. Read-outs that look alike come from different tables or passages of the source.

Legend:
[1] = tested on: A2780; experiment: MTT cytotoxicity assay, A2780; type: cell-based; details: A2780, lowest IC50 of the panel
Protocol: (§1) The following Ovarian Cancer Cell lines were analyzed: TOV112, SKOV-3, OVCAR-3, PEO1, PEO6, PEO4, A2780 and A2780-Cis (an A2780 variant made resistant to platinum), representing the main different molecular subtypes of ovarian cancer (Supplementary Table 6). These cell lines were maintained at 37 °C in 5% CO2 in RPMI‐1640 medium (Sigma‐Aldrich Co.) and DMEM medium (Sigma‐Aldrich Co.), all supplemented with 10% heat‐inactivated FBS (Sigma‐Aldrich Co.). To verify the genetic profile of the cell lines, a characterization of microsatellite markers was carried out (AmpFlSTR Identifiler PCR Amplification Kit, AppliedBiosystem).
(§2) For the pharmacological characterization of the different cell lines, dose–response curves were obtained for lurbinectedin (range between 25 and 0.0343 μM and 100–1.5625 μM dilution factor 3 and 2, respectively) and olaparib (range between […]). […] Cytotoxicity assay was assessed performing six technical replicates and three biological replicates per each curve point.
(§3) For MTT assay, cells were plated and after 24 h of incubation, treated with the drug (lurbinectedin/olaparib) either as a single agent or with both agents simultaneously. […] Finally, the absorbance was measured at 570 nm.

[2] = single-agent, cited from earlier work
[3] = cited from earlier work
[4] = Pharmacokinetics in patients, cycle 1 (noncompartmental analysis); type: in vivo, human; details: for Drug–drug interactions (DDI): combination of lurbinectedin and olaparib
From the text: Blood samples for pharmacokinetic (PK) analyses were collected during cycle 1, with a schedule of ten samples (Supplementary Table 5).
Safety and efficacy population comprised all patients who received at least one dose of the study treatment. Continuous variables were presented with summary statistics and qualitative variables with the absolute and relative frequencies. In those cases where it was necessary to ensure the normality of the continuous parameters, log transformation (or other suitable transformation) was performed. Analysis of Variance (ANOVA) was used for exploratory group comparisons. If Gaussian distribution assumptions (Shapiro–Wilks test) were not met, equivalent nonparametric methods as the Kruskal–Wallis, were performed. Chi-squared or Fisher exact test were used for qualitative parameters. To explore the change in value of a variable, between baseline and week 12 or any other time point, a t-test for paired data or the Wilcoxon signed-rank test was performed, based on the distribution followed by the corresponding variable. All statistical analyses were performed using IBM SPSS Statistics 22 and R v.3.4.3. PK analysis was performed according to the NCA. […] The dose-exposure relationships for Cmax and AUC for lurbinectedin and AUC 0–6 for olaparib will be evaluated and any potential PK interaction between olaparib and lurbinectedin were also explored. The population pharmacokinetics (PopPK) models for each drug was used to detect potential drug–drug interactions based on single agent PopPK models. The potential influence on selected PK parameters of selected demographic and clinical dichotomous variables (gender, laboratory test results above/below selected cutoff values, etc.) was evaluated by Student’s test Mann–Whitney’s U test as appropriate. For multinomial variables, analysis of variance was used. For selected continuous demographic and clinical variables, relationships with selected PK parameters were graphically explored and assessed using correlation and regression methods.
Supplementary Table 5. Sampling schedule for the determination of lurbinectedin and
Sample Time relative to the Sampling times Sampling times PK
number lurbinectedin for lurbinectedin for olaparib window
#1 1 0 min Pre-infusion Pre-dose -10 min to SOI
#2 1 0.5 h 30 min before EOI 30 min after 1st administration ±2 min
#3 1 0.92 h 5 min before EOI 55 min after 1st administration ±2 min
#4 1 1.5 h 30 min after EOI 1.5 h after 1st administration ±5 min
#5 1 3 h 2 h after EOI 3 h after 1st administration ±10 min
#6 1 4.5 h 3.5 h after EOI 4.5 h after 1st administration ±10 min
#7 1 6 h 5 h after EOI 6 h after 1st administration ±10 min
2 24 h after 1st administration
#8 24 h 23 h after EOI (immediately before 3rd olaparib administration) ±2 h
4 72 h after 1st administration
#9 † 72 h 71 h after EOI (immediately before 7th olaparib administration) +24 / -2 h […]

[5] = tested on: ovarian cancer cell lines; experiment: MTT cytotoxicity assay, panel of ovarian cancer cell lines; type: cell-based
Protocol: as §1, §2
Before starting cytotoxicity assays to characterize the chemosensitivity of cell lines to study drugs, different time of exposures and doses were tested in order to establish the most suitable working conditions. […] Regarding olaparib, exposure times were established at 72, 96 and 120 h, measuring absorbance directly after treatment exposure (Supplementary Fig. 10). […]

[6] = tested on: A2780 CIS; experiment: MTT cytotoxicity assay, A2780 CIS; type: cell-based; details: A2780cis, lowest IC50 of the panel
Protocol: as §1, §2, §3

COc1ccc2[nH]c3c(c2c1)CCN[C@]31CS[C@@H]2c3c(OC(C)=O)c(C)c4c(c3[C@H](COC1=O)N1[C@@H]2[C@H]2c3c(cc(C)c(OC)c3O)C[C@@H]([C@@H]1O)N2C)OCO4 [lurbinectedin]
IC50 [1]: 0.46 nM | Grade 3–4 neutropenia ([2]; dose adjusted to body surface area ref 23): 57% | Grade 3–4 neutropenia ([2]; flat dose ref 21): up to 85% | Mean lurbinectedin CL as single-agent ([3]; single-agent ref 25): 12 L/h | Drug–drug interactions (DDI) [4]: did not observe any potential drug–drug interactions; also recorded: no drug interactions | Mean lurbinectedin CL ([4]; highest olaparib DL (250 mg BID)): 12 L/h | Lurbinectedin CL variability ([4]; lurbinectedin 1 mg/m^2): 92% | Lurbinectedin CL, one patient with high CL ([4]; lurbinectedin 1 mg/m^2): 37 L/h | Lurbinectedin CL variability ([4]; lurbinectedin 1.5 mg/m^2): 36% | Lurbinectedin CL variability ([4]; lurbinectedin 2 mg/m^2): 52% | Lurbinectedin CL variabilities ([4]; olaparib 200 and 250 mg BID, lurbinectedin 1.5 and 2 mg/m^2): ~36% | Mean lurbinectedin clearance (CL) ([4]; three lurbinectedin DLs, with olaparib): ~12 L/h | IC50 reached after 1 h exposure ([5]; 1 h exposure, viability at 72 h): not enough to reach the IC50 value | IC50 ([5]; all cell lines except OVCAR3, 72 h exposure): < 1 nM

O=C(c1cc(Cc2n[nH]c(=O)c3ccccc23)ccc1F)N1CCN(C(=O)C2CC2)CC1 [olaparib]
IC50 [6]: 2900 nM | Olaparib total body clearance ([3]; literature ref 31): 5.1 L/h and 8.6 L/h | Olaparib PK parameters by lurbinectedin DL ([4]; NCA): did not show differences | Drug–drug interactions (DDI) [4]: no drug interactions | clearance ([4]; human, blood, oral, olaparib 100 mg, read-out: Olaparib CL (converted)): 50 mL/min | clearance ([4]; human, blood, oral, olaparib DLs above 100 mg, read-out: Olaparib CL (converted)): 100 to 167 mL/min | half-life ([4]; human, in vivo, oral, this trial, NCA samples until 6 h, read-out: Olaparib terminal half-life (converted)): 3 h | clearance ([4]; human, in vivo, oral, this trial, read-out: Mean olaparib total body clearance (converted)): 117 mL/min
